Patent US10800791B2, “Triazole ACC inhibitors and uses thereof” (Gilead Apollo, LLC, priority 2015, dated 2020)
Converted amounts (≈) assume the structure as drawn. Where two headings read alike, the source gives them in different places.

Tests used:
[1] = test system: Fusarium virguliforme (Fv); assay: Growth inhibition assay of fungal pathogens, Fv; type: cell-based; settings: 48 h
Procedure, shortened: (§1)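 Percent inhibition derived at 48 hours from OD600 and visual scores versus 2% DMSO control, with media+DMSO blank as background. Spore inocula in 17% V8 medium were sized from 48 h growth curves; compounds tested at final 50/10/2 or 2/0.4/0.08 ppm.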

C. krusei = assay: Antifungal Activity Assay (broth microtiter MIC), C. krusei; type: cell-based, Candida krusei; settings: Pichia kudriavzevii, ATCC6258, 48 h
Procedure, shortened: (§2)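 Colonies from 24 h Sabouraud dextrose agar plates (35° C) are suspended in RPMI 1640+MOPS and diluted to give 2.5×10^3 CFU/mL in the wells. Plates are set up per CLSI M27-A3. Visual MIC is recorded at 48 h.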

C. parapsilosis = assay: Antifungal Activity Assay (broth microtiter MIC), C. parapsilosis; type: cell-based, Candida parapsilosis; settings: Lodderomyces parapsilosis, ATCC22019, 48 h
Procedure, shortened: as §2

Rhizoctonia solani (Rs) = assay: Growth inhibition assay of fungal pathogens, Rs; type: cell-based; settings: 48 h
Diplodia maydis (Dm) = assay: Growth inhibition assay of fungal pathogens, Dm; type: cell-based; settings: Stenocarpella maydis, 48 h
Procedure, shortened: as §1

fungal (fACC2) = fungal (fACC2) (UniProt Q00955); settings: read-out: fACC2 (in vitro ACC2 Inhibition Assay, IC50), ADP-Glo, 5 nM ACC2, 20 μM ATP, 20 μM acetyl-CoA
Septoria tritici (St) = assay: Growth inhibition assay of fungal pathogens, St; type: cell-based; settings: Zymoseptoria tritici, 48 h
Procedure, shortened: as §1

[2] = test system: Fusarium moniliforme (Fm); assay: Growth inhibition assay of fungal pathogens, Fm; type: cell-based; settings: for IC90: Fusarium verticillioides, 48 h, read-out: Concentration at 90% Inhibition Fm
Procedure, shortened: as §1

Botrtyis cinerea (Bc) = assay: Growth inhibition assay of fungal pathogens, Bc; type: cell-based; settings: 48 h
Procedure, shortened: as §1

C. albicans = assay: Antifungal Activity Assay (broth microtiter MIC), C. albicans; type: cell-based, Candida albicans; settings: Candida albicans, ATCC90028, 48 h
Procedure, shortened: as §2

[3] = test system: Collectotrichum graminicola (Cg); assay: Growth inhibition assay of fungal pathogens, Cg; type: cell-based; settings: 48 h
Procedure, shortened: as §1

[4] = read-out: Concentration at 90% Inhibition Fv, Fusarium virguliforme, growth inhibition at 48 hours vs 2% DMSO control
[5] = read-out: Concentration at 90% Inhibition Fv, Fusarium virguliforme, growth inhibition vs 2% DMSO control at 48 hours
[6] = read-out: MIC, C. krusei ATCC 6258, Table 3a, 3 replicates, MIC recorded at 48 h
[7] = read-out: MIC, C. krusei ATCC 6258, Table 3b (additional results), 3 replicates, MIC recorded at 48 h
[8] = read-out: MIC, C. parapsilosis ATCC 22019, Table 3a, 3 replicates, MIC recorded at 48 h
[9] = read-out: MIC, C. parapsilosis ATCC 22019, Table 3b (additional results), 3 replicates, MIC recorded at 48 h
[10] = read-out: Concentration at 90% Inhibition Rs, Rhizoctonia solani, mycelial plugs, growth inhibition at 48 hours vs 2% DMSO control
[11] = read-out: Concentration at 90% Inhibition Rs, Rhizoctonia solani, mycelial plugs, growth inhibition vs 2% DMSO control at 48 hours
[12] = read-out: Concentration at 90% Inhibition Dm, Diplodia maydis, growth inhibition at 48 hours vs 2% DMSO control
[13] = read-out: Concentration at 90% Inhibition Dm, Diplodia maydis, growth inhibition vs 2% DMSO control at 48 hours
[14] = read-out: Concentration at 90% Inhibition St, Septoria tritici, growth inhibition at 48 hours vs 2% DMSO control
[15] = read-out: Concentration at 90% Inhibition St, Septoria tritici, growth inhibition vs 2% DMSO control at 48 hours
[16] = Fusarium moniliforme, growth inhibition at 48 hours vs 2% DMSO control
[17] = read-out: Concentration at 90% Inhibition Bc, Botrtyis cinerea, growth inhibition at 48 hours vs 2% DMSO control
[18] = read-out: Concentration at 90% Inhibition Bc, Botrtyis cinerea, growth inhibition vs 2% DMSO control at 48 hours
[19] = read-out: MIC, C. albicans ATCC 90028, Table 3a, 3 replicates, MIC recorded at 48 h
[20] = read-out: MIC, C. albicans ATCC 90028, Table 3b (additional results), 3 replicates, MIC recorded at 48 h
[21] = read-out: Concentration at 90% Inhibition Cg, Collectotrichum graminicola, growth inhibition at 48 hours vs 2% DMSO control
[22] = read-out: Concentration at 90% Inhibition Cg, Collectotrichum graminicola, growth inhibition vs 2% DMSO control at 48 hours

fungal (fACC2), sequence (Q00955 whole entry): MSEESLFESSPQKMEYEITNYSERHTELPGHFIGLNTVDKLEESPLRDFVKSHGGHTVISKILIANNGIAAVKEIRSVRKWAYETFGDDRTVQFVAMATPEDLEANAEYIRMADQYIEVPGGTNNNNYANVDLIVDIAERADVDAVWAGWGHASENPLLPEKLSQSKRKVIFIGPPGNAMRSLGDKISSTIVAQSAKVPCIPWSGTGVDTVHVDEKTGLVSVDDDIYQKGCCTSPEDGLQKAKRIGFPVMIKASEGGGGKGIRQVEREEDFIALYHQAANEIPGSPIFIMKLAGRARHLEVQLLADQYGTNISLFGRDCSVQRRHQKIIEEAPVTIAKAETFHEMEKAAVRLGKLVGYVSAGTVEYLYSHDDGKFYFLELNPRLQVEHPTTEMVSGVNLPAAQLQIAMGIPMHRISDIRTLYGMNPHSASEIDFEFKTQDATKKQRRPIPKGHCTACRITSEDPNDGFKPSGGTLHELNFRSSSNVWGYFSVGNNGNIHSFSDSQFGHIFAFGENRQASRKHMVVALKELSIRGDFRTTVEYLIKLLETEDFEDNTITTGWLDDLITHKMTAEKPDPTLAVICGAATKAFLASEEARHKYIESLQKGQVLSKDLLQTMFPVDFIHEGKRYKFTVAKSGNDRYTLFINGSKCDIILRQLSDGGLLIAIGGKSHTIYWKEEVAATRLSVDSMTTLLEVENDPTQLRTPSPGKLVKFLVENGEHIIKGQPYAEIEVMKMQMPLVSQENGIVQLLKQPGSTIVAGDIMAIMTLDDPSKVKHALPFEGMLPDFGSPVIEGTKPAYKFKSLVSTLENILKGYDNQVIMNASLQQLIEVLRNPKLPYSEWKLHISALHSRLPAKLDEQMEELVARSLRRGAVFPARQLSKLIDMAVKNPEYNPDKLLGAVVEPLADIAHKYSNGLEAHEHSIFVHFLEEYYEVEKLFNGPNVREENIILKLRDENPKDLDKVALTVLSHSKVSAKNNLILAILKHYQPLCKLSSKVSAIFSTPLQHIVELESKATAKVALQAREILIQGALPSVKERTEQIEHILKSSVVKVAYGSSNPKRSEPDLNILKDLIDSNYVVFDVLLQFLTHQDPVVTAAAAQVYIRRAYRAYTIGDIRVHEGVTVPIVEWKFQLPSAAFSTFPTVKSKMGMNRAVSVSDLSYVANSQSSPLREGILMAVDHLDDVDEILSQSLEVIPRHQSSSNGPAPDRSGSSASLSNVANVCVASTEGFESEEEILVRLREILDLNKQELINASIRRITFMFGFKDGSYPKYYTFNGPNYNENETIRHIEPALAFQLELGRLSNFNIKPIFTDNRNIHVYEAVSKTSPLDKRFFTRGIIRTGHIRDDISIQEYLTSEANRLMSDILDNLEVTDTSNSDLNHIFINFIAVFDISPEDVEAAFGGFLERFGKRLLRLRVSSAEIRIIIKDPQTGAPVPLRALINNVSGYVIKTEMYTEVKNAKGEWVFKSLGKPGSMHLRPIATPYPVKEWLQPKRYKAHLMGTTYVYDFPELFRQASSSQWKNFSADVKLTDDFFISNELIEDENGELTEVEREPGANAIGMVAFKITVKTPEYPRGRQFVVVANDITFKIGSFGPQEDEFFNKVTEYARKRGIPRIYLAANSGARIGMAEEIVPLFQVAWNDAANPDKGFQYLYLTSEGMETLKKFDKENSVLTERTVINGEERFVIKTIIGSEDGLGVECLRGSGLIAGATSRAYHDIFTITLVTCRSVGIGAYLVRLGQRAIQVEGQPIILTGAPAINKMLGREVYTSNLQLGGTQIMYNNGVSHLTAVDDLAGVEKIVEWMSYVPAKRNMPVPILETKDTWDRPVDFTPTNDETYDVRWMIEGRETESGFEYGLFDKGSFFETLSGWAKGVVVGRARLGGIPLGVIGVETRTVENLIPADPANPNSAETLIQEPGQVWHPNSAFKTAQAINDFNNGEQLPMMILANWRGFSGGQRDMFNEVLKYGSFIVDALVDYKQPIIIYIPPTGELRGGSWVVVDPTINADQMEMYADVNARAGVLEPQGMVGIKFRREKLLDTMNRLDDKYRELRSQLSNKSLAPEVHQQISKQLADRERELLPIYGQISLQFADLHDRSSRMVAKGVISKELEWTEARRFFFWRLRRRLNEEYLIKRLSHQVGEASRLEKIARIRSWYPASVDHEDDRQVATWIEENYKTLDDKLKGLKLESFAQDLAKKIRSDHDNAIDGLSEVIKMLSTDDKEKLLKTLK

SMILES	IC90 [1, 4] [µg/mL]	IC90 [1, 5] [µg/mL]	MIC (C. krusei; [6]) [µg/mL]	MIC (C. krusei; [7]) [µg/mL]	MIC (C. parapsilosis; [8]) [µg/mL]	MIC (C. parapsilosis; [9]) [µg/mL]	IC90 (Rhizoctonia solani (Rs); [10]) [µg/mL]	IC90 (Rhizoctonia solani (Rs); [11]) [µg/mL]	IC90 (Diplodia maydis (Dm); [12]) [µg/mL]	IC90 (Diplodia maydis (Dm); [13]) [µg/mL]	IC50 (fungal (fACC2); Table 2a) [nM]	IC50 (fungal (fACC2); Table 2b, additional results) [nM]	IC90 (Septoria tritici (St); [14]) [µg/mL]	IC90 (Septoria tritici (St); [15]) [µg/mL]	Concentration at 90% Inhibition Fm [2, 16]	IC90 [2] [µg/mL]	IC90 (Botrtyis cinerea (Bc); [17]) [µg/mL]	IC90 (Botrtyis cinerea (Bc); [18]) [µg/mL]	MIC (C. albicans; [19]) [µg/mL]	MIC (C. albicans; [20]) [µg/mL]	other results
COCCO[C@@H](Cn1c(=O)n(CC(=O)NC(C)C)c(=O)c2c(C)c(-n3nccn3)sc21)c1cc(F)ccc1OC [Compound I-80, (R)-2-(1-(2-(5-fluoro-2-methoxyphenyl)-2-(2-methoxy-ethoxy)ethyl)-5-methyl-2,4-dioxo-6-(2H-1,2,3-triazol-2-yl)-1,4-dihydro-thieno[2,3-d]pyrimidin-3(2H)-yl)-N-isopropylacetamide]	2 (≈ 3.48 µM)	10 (≈ 17.4 µM)	2.1 to 4 (≈ 3.65 to 6.96 µM)	> 4.01	2.1 to 4 (≈ 3.65 to 6.96 µM)	2.01 to 4 (≈ 3.5 to 6.96 µM)	10 (≈ 17.4 µM)	> 50	> 50	> 50	1 to 5	1 to 5	> 50	> 50	AA (compound concentration of 0.08 ppm at 90% inhibition of fungal pathogens)	0.08 (≈ 0.139 µM)	> 50	> 50	2.1 to 4 (≈ 3.65 to 6.96 µM)	> 4.01	IC90 [3, 21]: > 50 µg/mL; IC90 [3, 22]: > 50 µg/mL
COc1ccc(F)cc1[C@H](Cn1c(=O)n(CC(=O)N2CCCC2)c(=O)c2c(C)c(-n3nccn3)sc21)OCCO [Compound I-81, (R)-1-(2-(5-fluoro-2-methoxyphenyl)-2-(2-hydroxy-ethoxy)ethyl)-5-methyl-3-(2-oxo-2-(pyrrolidin-1-yl)ethyl)-6-(2H-1,2,3-triazol-2-yl)thieno[2,3-d]pyrimidine-2,4(1H,3H)-dione]											1 to 5	1 to 5									IC90 ([1]; growth inhibition at 48 hours vs 2% DMSO control, read-out: Concentration at 90% Inhibition Fv): 0.4 µg/mL (≈ 0.699 µM); IC90 ([1]; growth inhibition vs 2% DMSO control at 48 hours, read-out: Concentration at 90% Inhibition Fv): 0.4 µg/mL (≈ 0.699 µM); MIC (C. krusei; Table 3a, ATCC 6258, 3 replicates, MIC recorded at 48 h, read-out: MIC, C. krusei ATCC 6258): 2.1 to 4 µg/mL (≈ 3.67 to 6.99 µM); MIC (C. krusei; Table 3b (additional results), ATCC 6258, 3 replicates, MIC recorded at 48 h, read-out: MIC, C. krusei ATCC 6258): > 4.01 µg/mL; MIC (C. parapsilosis; Table 3a, ATCC 22019, 3 replicates, MIC recorded at 48 h, read-out: MIC, C. parapsilosis ATCC 22019): 2.1 to 4 µg/mL (≈ 3.67 to 6.99 µM); MIC (C. parapsilosis; Table 3b (additional results), ATCC 22019, 3 replicates, MIC recorded at 48 h, read-out: MIC, C. parapsilosis ATCC 22019): 2.01 to 4 µg/mL (≈ 3.51 to 6.99 µM); IC90 (Rhizoctonia solani (Rs); mycelial plugs, growth inhibition at 48 hours vs 2% DMSO control, read-out: Concentration at 90% Inhibition Rs): 0.08 µg/mL (≈ 0.14 µM); IC90 (Rhizoctonia solani (Rs); mycelial plugs, growth inhibition vs 2% DMSO control at 48 hours, read-out: Concentration at 90% Inhibition Rs): 0.08 µg/mL (≈ 0.14 µM); IC90 (Diplodia maydis (Dm); Diplodia maydis, growth inhibition at 48 hours vs 2% DMSO control, read-out: Concentration at 90% Inhibition Dm): 2 µg/mL (≈ 3.49 µM); IC90 (Diplodia maydis (Dm); Diplodia maydis, growth inhibition vs 2% DMSO control at 48 hours, read-out: Concentration at 90% Inhibition Dm): 2 µg/mL (≈ 3.49 µM); IC90 (Septoria tritici (St); Septoria tritici, growth inhibition at 48 hours vs 2% DMSO control, read-out: Concentration at 90% Inhibition St): > 50 µg/mL; IC90 (Septoria tritici (St); Septoria tritici, growth inhibition vs 2% DMSO control at 48 hours, read-out: Concentration at 90% Inhibition St): > 50 µg/mL; IC90 [2, 16]: 0.08 µg/mL (≈ 0.14 µM); IC90 ([2]; Fusarium moniliforme, growth inhibition vs 2% DMSO control at 48 hours): 0.08 µg/mL (≈ 0.14 µM); IC90 (Botrtyis cinerea (Bc); Botrtyis cinerea, growth inhibition at 48 hours vs 2% DMSO control, read-out: Concentration at 90% Inhibition Bc): 0.08 µg/mL (≈ 0.14 µM); IC90 (Botrtyis cinerea (Bc); Botrtyis cinerea, growth inhibition vs 2% DMSO control at 48 hours, read-out: Concentration at 90% Inhibition Bc): 0.08 µg/mL (≈ 0.14 µM); MIC (C. albicans; Table 3a, ATCC 90028, 3 replicates, MIC recorded at 48 h, read-out: MIC, C. albicans ATCC 90028): 2.1 to 4 µg/mL (≈ 3.67 to 6.99 µM); MIC (C. albicans; Table 3b (additional results), ATCC 90028, 3 replicates, MIC recorded at 48 h, read-out: MIC, C. albicans ATCC 90028): 2.01 to 4 µg/mL (≈ 3.51 to 6.99 µM); IC90 ([3]; Collectotrichum graminicola, growth inhibition at 48 hours vs 2% DMSO control, read-out: Concentration at 90% Inhibition Cg): 2 µg/mL (≈ 3.49 µM); IC90 ([3]; Collectotrichum graminicola, growth inhibition vs 2% DMSO control at 48 hours, read-out: Concentration at 90% Inhibition Cg): 2 µg/mL (≈ 3.49 µM)
COc1ccc(F)cc1[C@H](Cn1c(=O)n(CC(=O)NC(C)C)c(=O)c2c(C)c(-n3nccn3)sc21)OCCO [Compound I-82, (R)-2-(1-(2-(5-fluoro-2-methoxyphenyl)-2-(2-hydroxy-ethoxy)ethyl)-5-methyl-2,4-dioxo-6-(2H-1,2,3-triazol-2-yl)-1,4-dihydro-thieno[2,3-d]pyrimidin-3(2H)-yl)-N-isopropylacetamide]	2 (≈ 3.57 µM)	2 (≈ 3.57 µM)	2.1 to 4 (≈ 3.75 to 7.14 µM)	2.01 to 4 (≈ 3.59 to 7.14 µM)	2.1 to 4 (≈ 3.75 to 7.14 µM)	2.01 to 4 (≈ 3.59 to 7.14 µM)	2 (≈ 3.57 µM)	2 (≈ 3.57 µM)	> 50	> 50	1 to 5	1 to 5	> 50	> 50	AA (compound concentration of 0.08 ppm at 90% inhibition of fungal pathogens)	0.08 (≈ 0.143 µM)	2 (≈ 3.57 µM)	2 (≈ 3.57 µM)	2.1 to 4 (≈ 3.75 to 7.14 µM)	2.01 to 4 (≈ 3.59 to 7.14 µM)	IC90 [3, 21]: 2 µg/mL (≈ 3.57 µM); IC90 [3, 22]: 2 µg/mL (≈ 3.57 µM)
